Test results taken from PubChem BioAssay AID206 (DTP/NCI, 2004).
Where “and” joins values, the source holds several entries; their conditions need not be identical. Identical values can stand only once. Records with an inconclusive call do not appear.

Test system: nude mice, HT29 intrarenal xenograft, tumor weight T/C
Experiment: NCI In Vivo Anticancer Drug Screen. Data for tumor model HT29;CX-1 Human Adenocarcinoma (MER+) (intrarenal inoculation) in NU/NU Swiss (nude) mice
Conditions: endpoint: mean tumor weight change, higher = larger tumour
Method in brief: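 Compounds were given to mice carrying transplantable tumors; a vehicle-dosed group served as control. The endpoint measured in each group was compared as a T/C quotient.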

[1] = dose: 75.0 mg/kg/injection, schedule: Q04DX004 (sc), vehicle: saline
[2] = dose: 150.0 mg/kg/injection, schedule: Q04DX004 (sc), vehicle: saline
[3] = dose: 150.0 mg/kg/injection, schedule: Q04DX004 (sc), vehicle: saline with Tween-80
[4] = dose: 300.0 mg/kg/injection, schedule: Q04DX004 (sc), vehicle: saline with Tween-80
[5] = dose: 1.0 mg/kg/injection, schedule: Q04DX004 (sc), vehicle: saline + alcohol
[6] = dose: 2.0 mg/kg/injection, schedule: Q04DX004 (sc), vehicle: saline + alcohol
[7] = dose: 4.0 mg/kg/injection, schedule: Q04DX004 (sc), vehicle: saline + alcohol

COC1/C=C\C=C(/C)C(=O)NC2=CC(=O)C=C(C2=O)C(OC)C(C)CC(OC)C(OC)C(C)/C=C(/C)C1OC(N)=O (stereo unspecified)
T/C (dose: 2.25 mg/kg/injection, schedule: Q04DX004 (sc), vehicle: Klucel (hydroxypropylcellulose) (HPC)): 92 % of control and 95 % of control | T/C (dose: 4.5 mg/kg/injection, schedule: Q04DX004 (sc), vehicle: Klucel (hydroxypropylcellulose) (HPC)): 33 % of control | T/C (dose: 9.0 mg/kg/injection, schedule: Q04DX004 (sc), vehicle: Klucel (hydroxypropylcellulose) (HPC)): 4 % of control

COc1cc(C)c2c(c1C=O)Oc1c(c(C)c(O)c3c1C(O)OC3=O)OC2=O (stereo unspecified)
T/C (dose: 50.0 mg/kg/injection, schedule: Q01DX010 (sc), vehicle: saline): 68 % of control | T/C (dose: 200.0 mg/kg/injection, schedule: Q01DX010 (sc), vehicle: saline): 50 % of control

[Cl][Mn][Cl]
T/C (dose: 18.75 mg/kg/injection, schedule: Q04DX004 (sc), vehicle: saline): 182 % of control | T/C [1]: 171 % of control | T/C [2]: 121 % of control

CCCN1COC(OCC)C(C)(C)C1 (stereo unspecified)
T/C [3]: 114 % of control | T/C [4]: 79 % of control | T/C (dose: 600.0 mg/kg/injection, schedule: Q04DX004 (sc), vehicle: saline with Tween-80): 96 % of control

CS(=O)(=O)OCCCCOS(C)(=O)=O
T/C (dose: 6.25 mg/kg/injection, schedule: Q01DX010 (sc), vehicle: saline with Tween-80): 121 % of control | T/C (dose: 25.0 mg/kg/injection, schedule: Q01DX010 (sc), vehicle: saline with Tween-80): 238 % of control

CC(=O)OC1=NC(C)c2c1cc(OC(C)=O)[nH]c2=O (stereo unspecified)
T/C (dose: 225.0 mg/kg/injection, schedule: Q04DX004 (sc), vehicle: Klucel (hydroxypropylcellulose) (HPC)): 108 % of control | T/C (dose: 900.0 mg/kg/injection, schedule: Q04DX004 (sc), vehicle: Klucel (hydroxypropylcellulose) (HPC)): 58 % of control

BrC1CC(Br)c2c1c1c(c3c2C(Br)CC3Br)C(Br)CC1Br (stereo unspecified)
T/C (dose: 225.0 mg/kg/injection, schedule: Q04DX004 (sc), vehicle: water): 76 % of control | T/C (dose: 300.0 mg/kg/injection, schedule: Q04DX004 (sc), vehicle: water): 84 % of control | T/C (dose: 450.0 mg/kg/injection, schedule: Q04DX004 (sc), vehicle: water): 157 % of control | T/C (dose: 900.0 mg/kg/injection, schedule: Q04DX004 (sc), vehicle: water): 158 % of control | T/C (dose: 1200.0 mg/kg/injection, schedule: Q04DX004 (sc), vehicle: water): 116 % of control | T/C (dose: 1800.0 mg/kg/injection, schedule: Q04DX004 (sc), vehicle: water): 22 % of control

CCCCCCCCCCCCSC1=C(Cl)C(=O)C(OC)=C(OC)C1=O
T/C (dose: 75.0 mg/kg/injection, schedule: Q04DX004 (sc), vehicle: saline with Tween-80): 76 % of control | T/C [3]: 36 % of control | T/C [4]: 25 % of control

C/C=C1\C[C@@H]2C(OC)Nc3cc(O)c(OC)cc3C(=O)N2C1 (stereo partly specified)
T/C (dose: 0.25 mg/kg/injection, schedule: Q04DX004 (sc), vehicle: saline): 113 % of control | T/C (dose: 0.5 mg/kg/injection, schedule: Q04DX004 (sc), vehicle: saline): 93 % of control | T/C (dose: 2.0 mg/kg/injection, schedule: Q04DX004 (sc), vehicle: saline): 75 % of control

O=C1N[C@@H]([C@H]2CC[C@H](Cl)CN2)C(=O)N[C@H]1[C@H]1CC[C@H](Cl)CN1
T/C (dose: 0.16 mg/kg/injection, schedule: Q01DX010 (sc), vehicle: water): 65 % of control and 70 % of control and 74 % of control | T/C (dose: 0.31 mg/kg/injection, schedule: Q01DX010 (sc), vehicle: water): 20 % of control

COc1cc(NCc2ccc3nc(N)nc(N)c3c2C)cc(OC)c1OC
T/C (dose: 9.35 mg/kg/injection, schedule: Q04DX004 (sc), vehicle: water): 88 % of control | T/C (dose: 10.0 mg/kg/injection, schedule: Q01DX010 (sc), vehicle: sodium bicarbonate): 35 % of control | T/C (dose: 18.7 mg/kg/injection, schedule: Q04DX004 (sc), vehicle: water): 117 % of control | T/C (dose: 37.5 mg/kg/injection, schedule: Q04DX004 (sc), vehicle: water): 32 % of control

CCCCCCCCCCCCCCCCP(=O)(OCCOCCCCCC)OCCOCCCCCC
T/C (dose: 37.5 mg/kg/injection, schedule: Q04DX004 (sc), vehicle: saline): 206 % of control | T/C [1]: 93 % of control | T/C (dose: 300.0 mg/kg/injection, schedule: Q04DX004 (sc), vehicle: saline): 178 % of control

CCC(C(=O)O)C(=O)O.[NH2-].[NH2-].[Pt+2]
T/C [1]: 92 % of control | T/C [2]: 50 % of control

COc1cccc2c1C(=O)c1c(O)c3c(c(O)c1C2=O)CC(O)(/C(C)=N/NC(=O)CCCCC(=O)N/N=C(\C)C1(O)Cc2c(O)c4c(c(O)c2C(OC2CC(N)C(O)C(C)O2)C1)C(=O)c1c(OC)cccc1C4=O)CC3OC1CC(N)C(O)C(C)O1 (stereo unspecified)
T/C (dose: 12.5 mg/kg/injection, schedule: Q04DX004 (sc), vehicle: water): 66 % of control | T/C (dose: 25.0 mg/kg/injection, schedule: Q04DX004 (sc), vehicle: water): 98 % of control | T/C (dose: 50.0 mg/kg/injection, schedule: Q04DX004 (sc), vehicle: water): 104 % of control | T/C (dose: 100.0 mg/kg/injection, schedule: Q04DX004 (sc), vehicle: water): 152 % of control

Cn1c(=O)[nH]c2nncnc2c1=O
T/C (dose: 15.0 mg/kg/injection, schedule: Q04DX004 (sc), vehicle: water): 79 % of control and 101 % of control | T/C (dose: 60.0 mg/kg/injection, schedule: Q04DX004 (sc), vehicle: water): 78 % of control and 86 % of control | T/C (dose: 120.0 mg/kg/injection, schedule: Q04DX004 (sc), vehicle: water): 19 % of control

COC(=O)[C@@]12OC[C@]34[C@H]([C@@H](O)[C@@H]1O)[C@@]1(C)CC(=O)C(O)=C(C)[C@@H]1C[C@H]3OC(=O)[C@H](OC(=O)/C=C(\C)C(C)C)[C@@H]24
T/C (dose: 0.25 mg/kg/injection, schedule: Q04DX004 (sc), vehicle: saline + alcohol): 67 % of control | T/C (dose: 0.5 mg/kg/injection, schedule: Q04DX004 (sc), vehicle: saline with Tween-80): 83 % of control | T/C [5]: 49 % of control and 62 % of control | T/C (dose: 1.0 mg/kg/injection, schedule: Q04DX004 (sc), vehicle: saline with Tween-80): 89 % of control | T/C [6]: 53 % of control and 65 % of control | T/C [7]: 72 % of control

COc1ccc2ccccc2c1C1NC(=O)c2ccccc2N1 (stereo unspecified)
T/C (dose: 150.0 mg/kg/injection, schedule: Q04DX004 (sc), vehicle: Klucel (hydroxypropylcellulose) (HPC)): 114 % of control | T/C (dose: 300.0 mg/kg/injection, schedule: Q04DX004 (sc), vehicle: Klucel (hydroxypropylcellulose) (HPC)): 115 % of control | T/C (dose: 600.0 mg/kg/injection, schedule: Q04DX004 (sc), vehicle: Klucel (hydroxypropylcellulose) (HPC)): 207 % of control | T/C (dose: 1200.0 mg/kg/injection, schedule: Q04DX004 (sc), vehicle: Klucel (hydroxypropylcellulose) (HPC)): 201 % of control

CC1=CC(=NN=c2cc(C)n([O-])c(C)c2)C=C(C)[N+]1=O
T/C (dose: 100.0 mg/kg/injection, schedule: Q04DX004 (sc), vehicle: suspension in saline): 73 % of control | T/C (dose: 200.0 mg/kg/injection, schedule: Q04DX004 (sc), vehicle: suspension in saline): 48 % of control | T/C (dose: 400.0 mg/kg/injection, schedule: Q04DX004 (sc), vehicle: suspension in saline): 40 % of control | T/C (dose: 800.0 mg/kg/injection, schedule: Q04DX004 (sc), vehicle: suspension in saline): 39 % of control

COC1/C=C/C=C(/C)Cc2cc(O)c(Cl)c(c2)N(C)C(=O)CC(OC(=O)C(C)C)C2(C)OC2C(C)C2CC1(O)NC(=O)O2 (stereo unspecified)
T/C (dose: 0.5 mg/kg/injection, schedule: Q04DX004 (sc), vehicle: saline + alcohol): 123 % of control | T/C [5]: 78 % of control | T/C [6]: 78 % of control | T/C [7]: 65 % of control

O=c1[nH]c(=O)n(C2CC(O)C(CO)O2)cc1I (stereo unspecified)
T/C (dose: 200.0 mg/kg/injection, schedule: Q01DX010 (sc), vehicle: saline with Tween-80): 91 % of control

CC(=O)[O][Pb]([O]C(C)=O)([c]1ccccc1)[c]1ccccc1
T/C (dose: 250.0 mg/kg/injection, schedule: Q04DX004 (sc), vehicle: Klucel (hydroxypropylcellulose) (HPC)): 120 % of control | T/C (dose: 500.0 mg/kg/injection, schedule: Q04DX004 (sc), vehicle: Klucel (hydroxypropylcellulose) (HPC)): 64 % of control | T/C (dose: 1000.0 mg/kg/injection, schedule: Q04DX004 (sc), vehicle: Klucel (hydroxypropylcellulose) (HPC)): 44 % of control | T/C (dose: 2000.0 mg/kg/injection, schedule: Q04DX004 (sc), vehicle: Klucel (hydroxypropylcellulose) (HPC)): 118 % of control

COC1OC(CO)C(O)C(NC(=O)N(C)N=O)C1O (stereo unspecified)
T/C (dose: 225.0 mg/kg/injection, schedule: Q04DX004 (sc), vehicle: suspension in saline): 104 % of control | T/C (dose: 450.0 mg/kg/injection, schedule: Q04DX004 (sc), vehicle: suspension in saline): 95 % of control | T/C (dose: 900.0 mg/kg/injection, schedule: Q04DX004 (sc), vehicle: suspension in saline): 33 % of control
